Assay results: publication PMC3641831 (Biochemistry, 2010)

Tested on: poly(dA)•2poly(dT)
Test: UV denaturation, triplex transition
Assay type: binding

For `c1cc2ccc3cccc4ccc(c1)c2c34` [Compound 5, reference compound], the “stabilization of DNA triplex” value was “does not stabilize”.
